The text below walks through data of publication PMC6539144, “Discovery of Novel Potential Reversible Peptidyl Arginine Deiminase Inhibitor” (International Journal of Molecular Sciences, 2019).

One may read the IC50 as the concentration that gives 50% inhibition. As usually defined, the Ki is a measure of affinity in units of concentration, obtained from inhibition or displacement.

Experiment [1] concerns PAD4. To be noted: cited from earlier work.
In experiment [2] the target is T1, GST-PAD4 (Homo sapiens, UniProt Q9UM07).
T1 construct: made in house
T1 sequence (Q9UM07 whole entry): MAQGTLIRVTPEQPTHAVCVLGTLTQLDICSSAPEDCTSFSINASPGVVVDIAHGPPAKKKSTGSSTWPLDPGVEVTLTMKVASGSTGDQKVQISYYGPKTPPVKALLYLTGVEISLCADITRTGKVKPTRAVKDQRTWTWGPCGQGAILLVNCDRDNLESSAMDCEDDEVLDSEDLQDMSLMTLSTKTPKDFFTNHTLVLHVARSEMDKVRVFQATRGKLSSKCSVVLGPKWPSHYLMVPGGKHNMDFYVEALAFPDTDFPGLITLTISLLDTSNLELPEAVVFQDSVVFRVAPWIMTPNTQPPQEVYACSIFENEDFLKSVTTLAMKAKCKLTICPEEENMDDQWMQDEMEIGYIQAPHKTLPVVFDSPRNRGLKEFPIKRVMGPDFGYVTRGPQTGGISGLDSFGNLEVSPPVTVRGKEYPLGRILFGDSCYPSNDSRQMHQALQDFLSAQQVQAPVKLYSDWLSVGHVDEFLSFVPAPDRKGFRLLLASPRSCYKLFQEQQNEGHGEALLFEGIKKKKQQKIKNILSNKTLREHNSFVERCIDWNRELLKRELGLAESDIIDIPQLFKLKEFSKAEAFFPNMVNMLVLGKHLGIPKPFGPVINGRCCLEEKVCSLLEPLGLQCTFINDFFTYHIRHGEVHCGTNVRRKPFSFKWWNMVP
The experiment in a line: GST-PAD4 inhibition assay (Dansyl-Gly-Arg citrullination, HPLC). In kind it is biochemical. To be noted: for Inhibition of GST-PAD4, initial screening: 0–250 µM inhibitor, 0.25 mM Dansyl-Gly-Arg; for Ki / IC50: GST-PAD4 preincubated 30 min with compound, 0.5 mM DTT, 10 mM CaCl2, 0.25 mM Dansyl-Gly-Arg, mean ± S.D., n = 3; for Ki: assuming competitive reversible mechanism; for IC50: linear regression. The method, then:
1 mU of GST-PAD4 was used in the experiments. To optimize the concentration of the reducing agent, experiments were done using different concentrations of DTT in the assay buffer ranging from 0 to 10 mM and the final concentration for the presented results was 0.5 mM DTT. Following pre-incubation of enzyme in the assay buffer, the reaction was initiated by the addition of 0.25 mM Dansyl-Gly-Arg. The reaction was stopped after 1h (as described above), the sample was separated by HPLC and the relative activity of PAD in each sample was determined by measuring the peak area of the citrullinated Dansyl-Gly-Arg.
The equilibrium inhibition constant (Ki) and IC50 were calculated from the fit of observed PAD activity against the respective compound concentration. Data was analyzed by the built-in Morrisson equation for tight-binding inhibition and represent the mean ± SD from at least three different determinations. IC50 values were determined by the linear regression to the initial fragment of the inhibition curve and are representative of inhibitor concentration required for the 50% reduction in the product release during the reaction.

In experiment [3] the target is T1, GST-PAD4. Put plainly: GST-PAD4 inhibitory activity in the presence of serum and synovial fluid. The settings on record: for Inhibitory activity on GST-PAD4 in the presence of RA synovial fluid / Inhibitory potential on GST-PAD4 in the presence of serum: 50 µM compound (Cl-amidine 50 and 200 µM); for Inhibitory activity on GST-PAD4 in the presence of RA synovial fluid: synovial fluid diluted 1:3, 1 mM Dansyl-Gly-Arg; for Inhibitory potential on GST-PAD4 in the presence of serum: serum diluted 1:3, compared to in vitro conditions. It is filed as biochemical. The method, then: A total of 50 μM of compounds 1 to 6 were pre-incubated with 1 mU of GST-PAD4 for 30 min at 37 °C with serum from healthy blood donors, serum or synovial fluid from patients with RA, serially diluted from 1:1.5 to 1:30 in the assay buffer (100 mM Tris pH 7.5, 10 mM CaCl2). The reaction was then initiated by the addition of 1 mM Dansyl-Gly-Arg and stopped after 1h as described above. The assay included a negative and positive control: a DMSO (no compound) control and a known irreversible compound (Cl-amidine) at 50 and 200 μM. Samples were separated by HPLC.

Experiment [4] deals with T2, HisTag-PPAD (Porphyromonas gingivalis, UniProt Q9RQJ2).
T2 construct: made in house
T2 sequence (Q9RQJ2 44-556): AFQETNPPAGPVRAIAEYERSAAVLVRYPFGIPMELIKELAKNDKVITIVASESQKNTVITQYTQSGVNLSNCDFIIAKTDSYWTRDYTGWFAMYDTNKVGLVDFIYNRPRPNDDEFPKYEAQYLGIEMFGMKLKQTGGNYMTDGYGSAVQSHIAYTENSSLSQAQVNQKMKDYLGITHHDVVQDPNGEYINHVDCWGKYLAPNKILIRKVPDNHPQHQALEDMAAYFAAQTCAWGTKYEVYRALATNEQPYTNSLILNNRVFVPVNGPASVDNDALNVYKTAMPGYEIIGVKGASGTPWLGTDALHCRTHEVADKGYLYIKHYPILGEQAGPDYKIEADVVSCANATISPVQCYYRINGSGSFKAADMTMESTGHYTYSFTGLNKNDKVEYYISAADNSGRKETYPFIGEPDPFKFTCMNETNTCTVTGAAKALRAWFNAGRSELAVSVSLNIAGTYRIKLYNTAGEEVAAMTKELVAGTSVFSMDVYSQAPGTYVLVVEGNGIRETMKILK
The experiment in a line: HisTag-PPAD inhibition assay (Dansyl-Gly-Arg citrullination, HPLC). The settings on record: 0–250 µM inhibitor, 0.25 mM Dansyl-Gly-Arg. It is filed as biochemical.

The target of experiment [5] is T1, GST-PAD4. The experiment in a line: Histone H3 citrullination assay (purified calf thymus histone H3, western blot). In kind it is biochemical. The settings on record: 50 µM, purified calf thymus histone H3, 0.5 mM DTT. The method, then:
A total of 50 μM of compounds 1 to 6 were pre-incubated with 1 mU of GST-PAD4 for 30 min at 37 °C in the assay buffer (100 mM Tris pH 7.5, 10 mM CaCl2, 0.5 mM DTT). After that, 5 μg of purified calf thymus histone H3 was added to the reaction mixture and incubated further for 60 min at 37 °C. Three controls were performed in the assay: a DMSO (no compound) control and a known irreversible compound (Cl-amidine) at 50 and 200 μM. The citrullination was assessed by western blot using antibodies specific to citrullinated histone H3.
The protein concentration in each sample was measured (A280nm) and normalized post-extraction. Next, histone proteins were separated in precast Novex^TM 16% Tris-Glycine 1 mm minigels (Invitrogen, Carlsbad, CA, USA). After electrophoresis, proteins were transferred into nitrocellulose membranes (0.2 μm) at 4 °C (transfer buffer: 10 mM CAPS, 20% methanol, pH 11). Membranes were blocked for 1 h at room temperature with 5% milk in TBST (1× Tris Buffered Saline, pH 8.0, with 0.1% Tween 20) and then incubated overnight at 4 °C with rabbit polyclonal anti-H3Cit antibody (Abcam, ab5103, Cambridge, UK) at a 1:1,000 dilution in the blocking solution. […] The signal was recorded with ChemiDoc image analyzer (Bio-Rad Laboratories, Hercules, CA, USA).

The test system of experiment [6] is human neutrophils. Put plainly: Histone H3 citrullination in neutrophils stimulated with calcium ionophore. In kind it is cell-based. The settings on record: 50 µM, 4 μM calcium ionophore stimulation. The method, then: Neutrophils were isolated from human peripheral blood collected in acid citrate dextrose (ACD-A) by first spinning blood on Lymphoprep^TM (Axis Shield, Oslo, Norway), followed by dextran sedimentation using 3% dextran density gradient and hypotonic lysis of erythrocytes. Neutrophil purity was assessed to be >90% by flow cytometry. Cells were resuspended at 2 × 10^6 cells/mL in RPMI-1640 with HEPES (Thermo Fisher Scientific, Waltham, MA, USA) supplemented with 2 mM CaCl2 and pre-treated for 30 min with DMSO alone, 50 μM of compounds 1 to 6 or with either 50 or 200 μM of Cl-amidine. Cells were then stimulated with 4 μM calcium ionophore A23187 (Sigma-Aldrich, St. Louis, MO, USA) or left unstimulated as controls for 15 min at 37 °C, 5% CO2. Following stimulation, acid extraction of histones was performed according to Shechter et al.. […] The presence of citrullination in cellular histones was analyzed by Western blot.
The protein concentration in each sample was measured (A280nm) and normalized post-extraction. […] The signal was recorded with ChemiDoc image analyzer (Bio-Rad Laboratories, Hercules, CA, USA).

Experiment [7] has as its system human neutrophils. Put plainly: NET assay: extracellular DNA release (PicoGreen) from PMA-stimulated neutrophils. In kind it is cell-based. The settings on record: 30 µM. The protocol: Granulocyte-enriched fractions were harvested using a lymphocyte separation medium density gradient (PAN Biotech, Aidenbach, Germany). Neutrophils and erythrocytes were separated after 30 min of incubation with 1% polyvinyl alcohol (POCH, Gliwice, Poland). Neutrophils were collected from the upper layer and after centrifugation (280× g, 10 min), the residual erythrocytes were removed by lysis in water. Cells were then resuspended in serum-free DMEM without phenol red (Gibco, Waltham, MA, USA). To measure the extracellular DNA release, neutrophils were seeded at 2 × 10^6/well in 0.01 mg/mL poly-L-lysine (Sigma-Aldrich) coated 24-well plates and centrifuged (200× g, 5 min). Neutrophils were treated for 1h with DMSO alone, or with either 30 μM or 100 μM of compound 4 or Cl-amidine. Cells were then stimulated with 25 nM PMA (phorbol 12-myristate 13-acetate) or left unstimulated as controls for 3 h at 37 °C, 5% CO2. Following stimulation, the cell medium was collected and the extracellular DNA was quantified using the Quant-iT^TM PicoGreen® dsDNA Reagent (QPG; Invitrogen, Carlsbad, CA, USA). The 1:200 dilution of QPG in TE buffer (10 mM Tris, 1 mM EDTA, pH 7.5) and 90 μL of TE buffer was added to 10 μL of the supernatant containing the extracellular DNA and fluorescence was measured with an excitation wavelength 480 nm and emission wavelength 520 nm.

The test system of experiment [8] is human neutrophils. Put plainly: NETs imaging assay (DNA and histone H2A immunostaining). In kind it is cell-based. To be noted: 100 µM, PMA stimulation. The protocol: For the NETs imaging assays, neutrophils were allowed to adhere to poly-L-lysine coated coverslips (5 × 10^5 cells/coverslip) for 30 min at 37 °C, 5% CO2. Neutrophils were then treated for 1 h with DMSO alone, or 100 μM of compound 4 or Cl-amidine. Neutrophils were then stimulated with 25 nM PMA or left unstimulated as controls for 3 h at 37 °C, 5% CO2. Neutrophils were fixed with 3.7% formaldehyde for 10 min, washed three times with PBS and blocked (5% FBS, 1% BSA, 0.05% Tween, 2 mM EDTA in PBS) for 1 h. Cells were washed and treated with 0.1% saponin (Sigma-Aldrich) in PBS for 30 min. Cells were stained first with rabbit polyclonal anti-histone H2A antibody (Abcam), and then with allophycocyanin (APC) F(ab’)2 goat anti-rabbit antibody (Jackson ImmunoResearch Lab Inc., Ely, UK) in the presence of 3% BSA in 0.1% saponin. Cells were counterstained with 1 µg/mL Hoechst 33258 dye (Invitrogen). Images were captured with a fluorescence microscope (Nikon Eclips Ti, Nikon, Konan, Tokyo).

Experiment [9] has as its system colitis. Set-up: method as in PMID 21415415. To be noted: cited from earlier work.
In experiment [10] the test system is collagen-induced arthritis. The settings on record: cited from earlier work.
[11] abbreviates: 50 µM compound, serum diluted 1:3, 1 mM Dansyl-Gly-Arg.
Where [12] appears, read: PAD4-specific reversible inhibitors, read-out: IC50.

The structures appear in SMILES notation. Like-named read-outs stand apart in the source and are kept apart here.

With `[H]/N=C(/N)N[C@H]1[C@H](O)[C@@H](O)[C@H](O[C@@H]2O[C@@H](C)[C@](O)(C=O)[C@H]2O[C@@H]2O[C@@H](CO)[C@H](O)[C@@H](O)[C@@H]2NC)[C@@H](N/C(N)=N\[H])[C@@H]1O` [streptomycin], the concentration for half-maximal inhibition (IC50) entry in experiment [1] (reversible inhibitors) is listed as “millimolar”.

Consider `Cc1ccc(/C=c2/sc3ncnn3c2=O)o1` [Compound 1], for which the “Inhibition of GST-PAD4, initial screening” value in experiment [2] was “no inhibition”. For the same compound, the “Inhibitory activity on GST-PAD4 in the presence of RA synovial fluid” value in experiment [3] was “did not show any detectable inhibitory activity”. Besides, in experiment [3] (setting [11]), the “Inhibitory activity on GST-PAD4 in the presence of serum from RA patients” value is “did not show any detectable inhibitory activity” and the “Inhibitory activity on GST-PAD4 in the presence of serum from healthy donors” value was “did not show any detectable inhibitory activity”.

On to `FC(F)(F)c1cc(SCc2ccc(Cl)c(Cl)c2)nc2cc3c(cc12)OCO3` [Compound 4], for which, in experiment [2], the “Inhibition of GST-PAD4, initial screening” value is on record as “partially inhibited”; the Ki is 1 ± 0.16 µM; the IC50 came to 1.88 ± 0.26 µM. In addition, in experiment [4], the “Inhibition of HisTag-PPAD” value is “no effect”. Further, the “Inhibitory potential on GST-PAD4 in the presence of serum” value (from here on “Inhibitory potential on GST-PAD4”) in experiment [3] is “retained their inhibitory potential”. In addition, in experiment [3] (setting [11]), the “Inhibitory activity on GST-PAD4 in the presence of serum from RA patients” value is “did not diminish further”. Besides, in experiment [5], the “Inhibition of GST-PAD4-mediated citrullination of histone H3 (western blot)” value is on record as “significantly hampered”. For the same compound, the “Inhibition of histone H3 citrullination in neutrophils (western blot)” value in experiment [6] is recorded as “visibly limited”. The “Inhibition of DNA release (NETs) from PMA-stimulated neutrophils” value in [7] is “limited ability to block DNA release”. Moreover, the “NET formation visualized by DNA and histone H2A immunostaining” value in experiment [8] is listed as “blocked the NET formation”.

For the compound `Cc1ccc(/C=c2/sc3ncnn3c2=O)o1` [Compound 2], in experiment [2], the “Inhibition of GST-PAD4, initial screening” value is recorded as “partially inhibited”; the inhibitory constant (Ki) came to 0.94 ± 0.31 µM; the IC50 is 1.4 ± 0.26 µM. The “Inhibition of HisTag-PPAD” value in [4] is given as “no effect”. The “Inhibitory potential on GST-PAD4” value in experiment [3] was “retained their inhibitory potential”. Also, in [6], the “Inhibition of histone H3 citrullination in neutrophils (western blot)” value was “ineffective”.

With `N=C(CCl)NCCC[C@H](NC(=O)c1ccccc1)C(N)=O` [Cl-amidine, N-α-Benzoyl-N5-(2-Chloro-1-Iminoethyl)-l-Ornithine Amide, reference compound], in [3], the “Inhibitory potential on GST-PAD4” value was “partially losing its inhibitory potential” and the “Inhibitory activity on GST-PAD4 in the presence of RA synovial fluid” value is recorded as “ineffective”. Further, the “Inhibition of GST-PAD4-mediated citrullination of histone H3 (western blot)” value in experiment [5] is “not effective”. Moreover, the “Inhibition of DNA release (NETs) from PMA-stimulated neutrophils” value in [7] is given as “inhibited this effect”. The “NET formation visualized by DNA and histone H2A immunostaining” value in [8] is “blocked the NET formation”. Besides, in [1] (read-out: IC50), the IC50 was […]. In [9], the “Clinical signs and symptoms of colitis” value is “reduce clinical signs and symptoms of colitis”. Further, in experiment [10], the “Severity of murine collagen-induced arthritis” value is recorded as “decrease in the severity”.

For `CCn1c(-c2nc3cc(C(=O)N4CCCC(N)C4)cc(OC)c3n2C)cc2cccnc21` (stereo not drawn) [GSK199], the half-inhibitory concentration (IC50) in experiment [1] (setting [12]) is 0.2 µM.

Take `CN(C)c1ccc(O)c2c1C[C@H]1C[C@H]3[C@H](N(C)C)C(O)=C(C(N)=O)C(=O)[C@@]3(O)C(O)=C1C2=O` [minocycline]: the IC50 entry in experiment [1] (reversible inhibitors) was “millimolar”.

As for `COc1cc(C(=O)N2CC[C@@H](O)[C@@H](N)C2)cc2nc(-c3cc4ccccc4n3CC3CC3)n(C)c12` [GSK484], the IC50 in experiment [1] (setting [12]) was […].

In the case of `CC(=O)O[C@H]1C(=O)[C@@]2(C)[C@H]([C@H](OC(=O)c3ccccc3)[C@]3(O)C[C@H](OC(=O)[C@H](O)[C@@H](NC(=O)c4ccccc4)c4ccccc4)C(C)=C1C3(C)C)[C@]1(OC(C)=O)CO[C@@H]1C[C@@H]2O` [taxol], in [1] (reversible inhibitors), the half-maximal inhibitory concentration (IC50) entry is “millimolar”.
